Measurements taken from patent US20100159039A1, “ANTIVIRAL AGENTS CONTAINING A FERMENTATION PRODUCT OF GARLIC BY LACTIC ACID BACTERIA” (Liisna Inc., priority 2008, published 2010).
Converted amounts (≈) assume the structure as drawn. Read-outs that look alike come from different tables or passages of the source.

Columns and labels:
in vitro = conditions: dog
[1] = system: influenza virus Type B (B/Panama/45/90); assay: CPE inhibition assay in MDCK cells, influenza B; assay type: cell-based; conditions: for EC50: Influenza B virus, MDCK, 72 h, read-out: Antiviral activity (EC50) Panama B
[2] = system: influenza virus Type H3N2 (A/Seoul/11/88); assay: CPE inhibition assay in MDCK cells, influenza A/H3N2; assay type: cell-based; conditions: for EC50: 72 h, MDCK cells, 100 CCID50, three days, read-out: Antiviral activity (EC50) Seoul A/H3N2
[3] = system: influenza virus Type H1N1 (A/Taiwan/1/86); assay: CPE inhibition assay in MDCK cells, influenza A/H1N1; assay type: cell-based; conditions: for EC50: 72 h, MDCK cells, 100 CCID50, three days, read-out: Antiviral activity (EC50) Taiwan A/H1N1
[4] = system: MDCK (Madin-Darby canine kidney) cells

With `NC12CC3CC(CC(C3)C1)C2` [Amantadine, amantadine] the CC50 (in vitro) was greater than 100 µg/mL, the EC50 [1] was greater than 100 µg/mL and the “Selectivity index (SI, CC50/EC50) Seoul A/H3N2” value [2] was greater than 204.1. It also gave an EC50 [2] of 0.49 µg/mL (≈ 3.24 µM) and an EC50 [3] greater than 100 µg/mL.
For `CC(O)C(=O)O` (centres unmarked) [Lactic acid, lactic acid], the “Toxicity CC50 (50% cytotoxic concentration)” value [4] was 0.014, the “Selectivity index (SI, CC50/EC50) Panama B” value [1] was less than 1.00 and the “Selectivity index (SI, CC50/EC50) Seoul A/H3N2” value ([2]; CC50/EC50) was less than 1.00. For the same compound, the “Selectivity index (SI, CC50/EC50) Taiwan A/H1N1” value ([3]; CC50/EC50) was less than 1.00.
In the case of `CCOC(=O)C1=C[C@@H](OC(CC)CC)[C@H](NC(C)=O)[C@@H](N)C1` [Oseltamivir, oseltamivir], the CC50 (in vitro) is reported as greater than 100 µg/mL, the “Selectivity index (SI, CC50/EC50) Panama B” value [1] is reported as greater than 9.9 and the EC50 [1] is reported as 10.1 µg/mL (≈ 32.5 µM). The EC50 [2] was 0.49 µg/mL (≈ 1.57 µM), the “Selectivity index (SI, CC50/EC50) Seoul A/H3N2” value ([2]; CC50/EC50) was greater than 202.4 and the EC50 [3] was 16.4 µg/mL (≈ 52.3 µM). The “Selectivity index (SI, CC50/EC50) Taiwan A/H1N1” value ([3]; CC50/EC50) was greater than 6.1.
In the case of `NC(=O)c1ncn([C@@H]2O[C@H](CO)[C@@H](O)[C@H]2O)n1` [Ribavirin, ribavirin], the CC50 (in vitro) is reported as greater than 100 µg/mL, the “Selectivity index (SI, CC50/EC50) Panama B” value [1] is reported as greater than 43.7 and the EC50 [1] is reported as 2.29 µg/mL (≈ 9.38 µM). For the same compound, the “Selectivity index (SI, CC50/EC50) Seoul A/H3N2” value [2] was greater than 34.7, the EC50 [2] was 2.88 µg/mL (≈ 11.8 µM) and the “Selectivity index (SI, CC50/EC50) Taiwan A/H1N1” value [3] was greater than 15.3. It also gave an EC50 [3] of 6.54 µg/mL (≈ 26.8 µM).
